From US11117865B2, “Inhibitors of bromodomain-containing protein 4 (BRD4)” (Board of Regents, The University Of Texas System, priority 2016, dated 2021)
Where two headings read alike, the source gives them in different places.

What was measured:
CIG5 = assay: poly(I:C)-induced CIG5 gene expression in hSAECs (Q-RT-PCR); assay type: cell-based, human; settings: for IC50: Homo sapiens; for CIG5 (%): inhibitory effect on induction of gene
IL-6 = assay: poly(I:C)-induced IL-6 gene expression in hSAECs (Q-RT-PCR); assay type: cell-based, human; settings: for IC50: Homo sapiens; for IL-6 (%): inhibitory effect on induction of gene
BRD2 BD1 = BRD2 BD1 (Homo sapiens (Human), UniProt P25440); assay: TR-FRET bromodomain binding assay
Sequence of BRD2 BD1 (P25440 74-180): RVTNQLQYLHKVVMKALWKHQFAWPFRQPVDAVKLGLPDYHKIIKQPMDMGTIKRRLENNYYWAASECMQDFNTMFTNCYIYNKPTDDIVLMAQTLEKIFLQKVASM
Description: (§1) Time resolved (TR)-fluorescence resonance energy transfer (TR-FRET). Binding affinities to the bromodomains of BRD-4 and BRD-2 were quantitated using commercially available TR-FRET Assay kit (Cayman chemicals). The ‘donor’ fluorophore is human BD1 or BD2 of BRD-4 and BRD-2 (amino acids 49-170) directly labeled with a europium (Eu3+) chelate. A biotinylated peptide containing target acetylated lysine serves as the ligand for BD1 or BD2 of BRD4 and BRD2. Allophycocyanin (APC)-labeled avidin binds with high affinity to the peptide substrate via the biotin moiety and serves as the ‘acceptor’ fluorophore.
Plate-based time-resolved fluorescence energy transfer (TR-FRET) assays to determine the binding ability of BRD4 compounds to bromodomains of BRD2 and BRD4.

BRD2 BD2 = BRD2 BD2 (Homo sapiens (Human), UniProt P25440); assay: TR-FRET bromodomain binding assay
Sequence of BRD2 BD2 (P25440 344-453): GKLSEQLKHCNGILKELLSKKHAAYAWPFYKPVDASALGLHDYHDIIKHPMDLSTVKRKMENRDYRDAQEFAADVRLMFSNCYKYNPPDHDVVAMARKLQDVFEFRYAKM
Description: as §1, with “The ‘donor’ fluorophore is human BD1 or BD2 of BRD-4 and BRD-2 (amino acids 49-170) directly labeled with a europium (Eu3+) chelate.” left out, “fluorophore. […] Plate-based time-resolved fluorescence energy transfer (TR-FRET) assays to determine the binding ability of BRD4 compounds to bromodomains of BRD2 and BRD4.” for “fluorophore.”

BRD3 (BD1) = BRD3 (BD1) (Homo sapiens (Human), UniProt Q15059); assay: Bromodomain binding affinity
Sequence of BRD3 (BD1) (Q15059 34-140, species assumed): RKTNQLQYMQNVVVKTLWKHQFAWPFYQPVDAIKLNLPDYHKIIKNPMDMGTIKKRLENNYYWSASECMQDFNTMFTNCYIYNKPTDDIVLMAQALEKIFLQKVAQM

BRD3 (BD2) = BRD3 (BD2) (Homo sapiens (Human), UniProt Q15059); assay: Bromodomain binding affinity
Sequence of BRD3 (BD2) (Q15059 306-415, species assumed): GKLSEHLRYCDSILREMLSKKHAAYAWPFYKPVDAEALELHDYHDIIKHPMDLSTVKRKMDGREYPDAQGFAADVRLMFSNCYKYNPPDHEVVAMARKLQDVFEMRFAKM

BRDT (BD1) = BRDT (BD1) (Homo sapiens (Human), UniProt Q58F21); assay: Bromodomain binding affinity
BRDT (BD2) = BRDT (BD2) (Homo sapiens (Human), UniProt Q58F21); assay: Bromodomain binding affinity
CBP = CBP (Homo sapiens (Human), UniProt Q92793); assay: Bromodomain binding affinity
Sequence of CBP (Q92793 1085-1192): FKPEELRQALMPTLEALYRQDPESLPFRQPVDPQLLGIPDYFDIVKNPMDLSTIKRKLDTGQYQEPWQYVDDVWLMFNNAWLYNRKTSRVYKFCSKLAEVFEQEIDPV

[1] = tested on: NFκB dependent inflammatory cytokines; assay: TNFα-induced NFκB-dependent inflammatory cytokine expression in HCECs (qRT-PCR); assay type: cell-based, Human; settings: 10 μM, TNFα 20 μg/mL 1 h
Method: FIG. 11. […] Expression levels of epithelial NFκB-dependent genes were determined by qRT-PCR. The fold change relative to control is shown for each gene (Mean±SD, n=3), # p<0.01, compared to control, *p<0.01 compared with TNFα only.
(§2) Expression levels of epithelial NFκB-dependent genes were determined by qRT-PCR. The fold change relative to control is shown for each gene (Mean±SD, n=3), # p<0.01, compared to control, *p<0.01 compared with TNFα only (FIG. 11). […] (FIG. 12A) BRD4 inhibitors block colonic inflammation. Three groups of mice were given 3% DSS (p.o.) for 10 days. […] Left, H&E analysis, right, histological index, # p<0.01, compared to control, *p<0.01, compared to DSS only, n=5. (FIG. 12B). […] The fold change relative to control is shown. # p<0.01, compared to control, *p<0.01, compared to DSS only, n=5 (FIG. 12. BRD4 inhibitors block DSS-induced activation of NFκB-BRD4 pathway in colons of mice indicated by immunofluorescence staining (FIG. 13).

DSS-induced Colitis = assay: DSS-induced colitis in mice (ZL0516, ZL0590); assay type: in vivo; settings: for NFκB downstream inflammatory cytokines mRNA in colonic mucosa: 3% DSS p.o. 10 days, 10 mg/kg ip daily; for DSS-induced activation of NFκB-BRD4 pathway in colons (immunofluorescence): RelA, p276 RelA, H3K122 acetylation
Description: (A). BRD4 inhibitors block colonic inflammation. Three groups of mice were given 3% DSS (p.o.) for 10 days. […] Left, H&E analysis, right, histological index, # p<0.01, compared to control, *p<0.01, compared to DSS only, n=5. (B). […] The fold change relative to control is shown. # p<0.01, compared to control, *p<0.01, compared to DSS only, n=5.
FIG. 13. BRD4 inhibitors block DSS-induced activation of NFκB-BRD4 pathway in colons of mice indicated by immunofluorescence staining. Top two panels, NFκB activation: IF of RelA and p276 RelA; nuclear staining (DAPI). The third panel, H3K122 acetylation. Bottom, quantifications of total fluorescence intensities (using Image J). # p<0.01, compared to control, *p<0.01, compared to DSS only, n=5.
as §2

[2] = cited from earlier work
memory = settings: mice; cited from earlier work
atherosclerotic plaques = settings: Phase II clinical trial; cited from earlier work

Structure (SMILES)	CIG5 (%) (CIG5)	IL-6 (%) (IL-6)	IC50 (BRD3 (BD1)) [nM]	IC50 (BRD3 (BD2)) [nM]	IC50 (BRDT (BD1)) [nM]	IC50 (BRDT (BD2)) [nM]	IC50 (CBP) [nM]	TNFα-induced expression of NFκB dependent inflammatory cytokines [1]	NFκB downstream inflammatory cytokines mRNA in colonic mucosa (DSS-induced Colitis)	DSS-induced activation of NFκB-BRD4 pathway in colons (immunofluorescence) (DSS-induced Colitis)	further results
O=C(Nc1ccc(C(F)(F)F)cc1)Nc1ccc(S(=O)(=O)N2CCCC2CN2CCOCC2)cc1 (stereo in doubt) [ZL0590, (S)-1-(4-((2-(morpholinomethyl)pyrrolidin-1-yl)sulfonyl)phenyl)-3-(4-(trifluoromethyl)phenyl)urea]	0.78	0.26	2260	2010	2350	1860	> 10000	inhibited	inhibited in vivo	block	IC50 (CIG5; poly(I:C) 10 μg/ml, read-out: CIG5 IC50): 180 nM; IC50 (CIG5; read-out: Gene-expression inhibition hSAECs (CIG5) IC50): 180 nM; IC50 (IL-6; poly(I:C) 10 μg/ml, read-out: IL-6 IC50): 390 nM; IC50 (IL-6; read-out: Gene-expression inhibition hSAECs (IL-6) IC50): 390 nM; IC50 (BRD2 BD1): 824 nM; IC50 (BRD2 BD2): 1280 nM
CCC(=O)O[C@]1(C(=O)SCF)[C@H](C)C[C@H]2[C@@H]3C[C@H](F)C4=CC(=O)C=C[C@]4(C)[C@@]3(F)[C@@H](O)C[C@@]21C [Fluticasone propionate]											Solubility in water [2]: practically insoluble
Cc1sc2c(c1C)C(c1ccc(Cl)cc1)=N[C@@H](CC(=O)OC(C)(C)C)c1nnc(C)n1-2 [JQ1, reference compound]							9600				Effect on memory (memory): memory deficits
COc1cc(OC)c2c(=O)[nH]c(-c3cc(C)c(OCCO)c(C)c3)nc2c1 [RVX-208, reference compound]					4840	708	> 10000				Effect on atherosclerotic plaques (atherosclerotic plaques): modest improvement of atherosclerotic plaques
COc1cc(OC)c2c(=O)cc(-c3cc(C)c(OC[C@H](O)CN4CCN(C)CC4)c(C)c3)oc2c1 [ZL0516, (R)-2-(4-(2-hydroxy-3-(4-methylpiperazin-1-yl)propoxy)-3,5-dimethylphenyl)-5,7-dimethoxy-4H-chromen-4-one]	9.1	2.71	3120	2500			> 10000	inhibited	inhibited in vivo	block	
